One assay relates to AGEs formation. In words: AGEs formation inhibition assay (BSA with fructose and glucose, fluorescence). Format: biochemical. Particulars: mean ± SD (n = 3); for IC50: isolated compounds, tested 10–500 µM. On the procedure: In accordance with a reported protocol with slight modifications, a reaction mixture of bovine serum albumin (10 mg/mL, Sigma Aldrich) in 50 mM phosphate buffer (pH 7.4) with 0.02% sodium azide was added to 0.4M fructose and glucose. The reaction mixture (270 μL) was added to 30 μL of sequentially diluted compounds or the positive control, AMG. Each sample of extract, hexane, water fractions, EAF, NBF, and compounds 1–10 were dissolved in DMSO for the AGEs assay at five different final concentrations (10–500 µg/mL for extracts and fractions or 10–500 µM for isolated constituents). After 48 h of incubation at 60 °C, 200 μL of the reaction products was taken to 96-well plates and its fluorescence was measured using a spectrofluorometric detector (FlexStation 3, HTRF® Chemistry) at an excitation wavelength of 350 nm and an emission wavelength of 450 nm. DMSO was used as negative control instead of the sample. The IC50 values and 95% confidence intervals were obtained via regression analysis. The percentage of inhibition (%) was calculated by the following equation, where Ac stands for the fluorescence of the control and As stands for the fluorescence of the sample: (1) Inhibition(%)=Ac−As/Ac×100

The target in assay [1] is T1, rat lens aldose reductase (Rattus norvegicus, UniProt P07943).
T1 construct: The rat lenses were homogenized and centrifuged at 10,000 rpm (4 °C, 20 min) and the supernatant was used as an enzyme source; from tissue; host or cells: rat lens (Sprague-Dawley)
In words: AR assay (rat lens homogenate, decrease in β-NADPH absorption). Format: biochemical, Sprague-Dawley rats. The settings on record: mean ± SD (n = 3); for IC50: isolated compounds, tested 0.1–100 µM.
Description: Lenses (one lens per 0.5 mL sodium buffer) were removed from Sprague-Dawley rats (weight 250–280 g) and stored in a deep freezer at −80 °C until use. The rat lenses were homogenized and centrifuged at 10,000 rpm (4 °C, 20 min) and the supernatant was used as an enzyme source [65]. AR activity was spectrophotometrically calculated by measuring the decrease in β-NADPH absorption rate at 340 nm for a 4 min period at 25 °C in a 96-well plate using the same detector device used in the AGEs assay. The assay mixture (300 µL) contained 0.1 M potassium phosphate buffer (pH 7.0), 0.1 M sodium phosphate buffer (pH 6.2), 1.6 mM β-NADPH, and test samples with 0.025 M of DL-glyceraldehyde as substrate. […] IC50 values were determined using the least-squares regression line of log concentration plotted against residual activity. TMG, a typical AR inhibitor, was used as the positive control. A negative control was fulfilled by using DMSO instead of the sample.

Assay [2] has as its target T2, porcine pancreatic lipase (Sus scrofa, UniProt P00591).
T2 construct: purchased Sigma-Aldrich Co. Type II
T2 sequence (P00591 1-450): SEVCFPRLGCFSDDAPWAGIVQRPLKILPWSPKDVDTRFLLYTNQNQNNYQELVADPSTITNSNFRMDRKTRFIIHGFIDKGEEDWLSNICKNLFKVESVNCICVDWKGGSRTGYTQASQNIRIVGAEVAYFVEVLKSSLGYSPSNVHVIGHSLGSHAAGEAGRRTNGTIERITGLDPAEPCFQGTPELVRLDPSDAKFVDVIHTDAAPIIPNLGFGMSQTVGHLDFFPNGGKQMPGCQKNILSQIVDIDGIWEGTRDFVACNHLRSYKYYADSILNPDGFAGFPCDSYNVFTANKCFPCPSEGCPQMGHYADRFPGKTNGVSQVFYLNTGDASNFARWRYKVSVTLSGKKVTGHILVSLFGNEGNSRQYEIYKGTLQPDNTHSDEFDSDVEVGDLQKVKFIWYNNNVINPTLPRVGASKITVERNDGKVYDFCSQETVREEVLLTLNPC
Put plainly: Lipase inhibition assay (p-NPB). The class given is biochemical. Particulars: isolated compounds; tested 10–2000 µM; mean ± SD (n = 3).
Description: Lipase inhibition activity was evaluated according to a slightly modified method of de Camargo et al. [66]. The substrate used was p-nitrophenyl butyrate (p-NPB), which is converted to p-nitro-phenol in the presence of lipase, giving a yellow color that can be used to quantify the extent of the reaction. Type II porcine pancreatic lipase was used at a concentration of 5 mg/mL. The substrate (p-NPB) was prepared in DMSO to achieve a concentration of 5 mM. Tested samples, dissolved in 10% DMSO at five different final concentrations (0.05–5.0 mg/mL for extracts and fractions or 10–2000 µM for isolated constituents), were mixed with Tris–HCl buffer (pH 7.4), and enzyme solution, with a total reaction mixture volume of 840 μL. After incubation at 37 °C for 15 min, p-NPB was added, and the solution was further incubated at 37 °C for 25 min. Then, the mixture was cooled for 2 min, and 200 μL was transferred to a 96-well plate. Absorbance was measured using the SUNRISE microplate reader. Blanks, in which enzymes were replaced with Tris–HCl buffer, were prepared for background corrections. […] The inhibition rate of lipase activity was also calculated using Equation (1).

The target of assay [3] is α-glucosidase from Saccharomyces cerevisiae. Put plainly: α-Glucosidase inhibition assay (p-NPG). Format: biochemical. The settings on record: isolated compounds; tested 1–1000 µM; mean ± SD (n = 3).
Description: This enzyme inhibition assay was carried out by using a 96-well microplate reader and a spectrophotometer. The reaction volume (60 μL) contained 100 mM phosphate buffer (pH 6.8), 2.5 mM p-nitrophenyl α-D-glucopyranoside (p-NPG), and sample dissolved in 10% DMSO at five different final concentrations (5–100 µg/mL for extracts and fractions or 1–1000 µM for isolated constituents). A chromogenic substance was used for quantification purposes. The mixture solution was added to each well, then, 20 μL of 10 mM phosphate buffer (pH 6.8) containing 0.2 U/mL α-glucosidase was added. The plate was incubated at 37 °C for 15 min, then, 80 μL of 0.2 mol/L sodium carbonate solution was added to stop the reaction. Absorbance was measured at 405 nm immediately after reaction cessation by using a SUNRISE microplate reader (Tecan Austria GmbH, Grodig, Austria). The negative control contained the same reaction mixture with phosphate buffer substituted for the sample solution. […] The inhibition rate of α-glucosidase activity was calculated using the same equation (1) used for inhibition of AGEs formation, but absorbance was measured instead of fluorescence.
The mark [4] stands for this setting: ND: no detection within test concentration.
Setting [5] is: 70% MeOH stem extracts of Smilacaceae plants.

A word on the IC50: it is the concentration that inhibits the measured activity by half. Low values mean higher potency, high ones lower potency. With `O=C(/C=C/c1ccc(O)c(O)c1)OC1CC(O)(C(=O)O)CC(O)C1O` (stereo not drawn) [3-O-Caffeoylquinic acid (3), 3-O-Caffeoylquinic acid], the 50% inhibitory concentration (IC50) was 80.5 ± 5.5 µM with AGEs formation, 0.6 ± 0.03 µM in assay [1] (setting [4]) and over 1000 µM in assay [2].
Turning to `O=C(/C=C/c1ccc(O)c(O)c1)OC1C(O)CC(O)(C(=O)O)CC1O` (stereo not drawn) [4-O-Caffeoylquinic acid (4), 4-O-Caffeoylquinic acid], the half-inhibitory concentration (IC50) in the assay with AGEs formation is 74.1 ± 3.1 µM; in assay [2], over 1000 µM; in assay [3], 736 ± 15 µM.
As for `O=C(/C=C/c1ccc(O)c(O)c1)OC1CC(O)(C(=O)O)CC(O)C1O` (stereo not drawn) [5-O-Caffeoylquinic acid (2), 5-O-Caffeoylquinic acid], the IC50 in the assay on AGEs formation came out at 215 ± 18 µM; in assay [1] (setting [4]), 87.5 ± 1.6 µM; in assay [2], 474 ± 35 µM.
For `N=C(N)NN` [AMG, aminoguanidine, reference compound], the “AGEs IC50” value in the assay with AGEs formation (setting [5]) is 54.8 ± 2.1 µg/mL; in the assay on AGEs formation (SCS extract and solvent fractions, tested 10–500 µg/mL, ND: no detection within test concentration), 54.8 ± 2.1 µg/mL. Half-maximal inhibition in the assay with AGEs formation (IC50) required 515 ± 33 µM.
On to `C[C@@H]1O[C@@H](Oc2c(-c3ccc(O)cc3)oc3cc(O)cc(O)c3c2=O)[C@H](O)[C@H](O)[C@H]1O` [Afzelin (7), Kaempferol 3-O-α-L-rhamnoside], for which the IC50 in the assay with AGEs formation was determined as 75.4 ± 3.8 µM.
Consider `COc1cc(/C=C/C(=O)OC[C@H]2O[C@@](CO)(O[C@H]3O[C@H](CO)[C@@H](O)[C@H](O)[C@H]3O)[C@@H](OC(=O)/C=C/c3ccc(O)c(OC)c3)[C@@H]2O)ccc1O` [Helonioside A (9)], for which the half-inhibitory concentration (IC50) with AGEs formation is 227 ± 16 µM; in assay [1] (setting [4]) it was 34.5 ± 0.1 µM; in assay [2] it was over 1000 µM; in assay [3] it was 154 ± 4 µM.
As for `CC1OC(Oc2c(O)cc(O)c3c(=O)cc(-c4ccc(O)cc4)oc23)C(O)C(O)C1O` (stereo not drawn) [Isoscutellarein-8-O-rhamnoside (10), Isoscutellarein 8-O-rhamnoside], the half-maximal inhibitory concentration (IC50) stood at 440 ± 17 µM with AGEs formation, 17 ± 3.6 µM in assay [1] (setting [4]), 101 ± 18 µM in assay [2] and 45.1 ± 2.6 µM in assay [3].
For the molecule `CC1OC(Oc2cc(O)c3c(=O)c(OC4OC(CO)C(O)C(O)C4O)c(-c4ccc(O)cc4)oc3c2)C(O)C(O)C1O` [Kaempferol 3-O-β-D-glucopyranosyl-7-O-α-L-rhamnopyranoside], the 50% inhibitory concentration (IC50) with AGEs formation was 193 ± 9 µM; in assay [1] (setting [4]), 9.38 ± 1.46 µM; in assay [2] it was over 1000 µM; in assay [3] it was 609 ± 32 µM.
`O=C(O)c1ccc(O)c(O)c1` [Protocatechuic acid (1), Protocatechuic acid]: the IC50 is 418 ± 10 µM in the assay on AGEs formation, 22.9 ± 0.8 µM in assay [2] and 176 ± 7 µM in assay [3].
For the molecule `C[C@@H]1O[C@@H](Oc2c(-c3ccc(O)c(O)c3)oc3cc(O)cc(O)c3c2=O)[C@H](O)[C@H](O)[C@H]1O` [Quercitrin (6), Quercetin 3-O-α-L-rhamnoside], the half-inhibitory concentration (IC50) with AGEs formation came out at 58 ± 2.5 µM; in assay [1] (setting [4]), 0.56 ± 0.14 µM; in assay [2], 96.7 ± 7 µM; in assay [3], 135 ± 13 µM.
Take `O=C(O)CC1(CC(=O)O)CCCC1` [TMG, 3,3′-tetramethyleneglutaric acid, reference compound]: the “Aldose Reductase IC50” value in assay [1] (setting [5]) came to 1.30 ± 0.10 µg/mL; in assay [1] (SCS extract and solvent fractions, tested 10–100 µg/mL, ND: no detection within test concentration) it was 1.30 ± 0.10 µg/mL. Further, in assay [1] (setting [4]), 6.97 ± 0.56 µM corresponded to half-maximal inhibition (IC50).
As to `Oc1ccc(/C=C/c2cc(O)cc(O)c2)cc1` [trans-Resveratrol (8), 3,5,4′-Trihydroxy-trans-stilbene], the IC50 amounted to 148 ± 14 µM with AGEs formation, 60.5 ± 16.8 µM in assay [1] (setting [4]), 61.2 ± 11.7 µM in assay [2] and 5.97 ± 0.2 µM in assay [3].

Values taken from paper PMC6155388, “Chemical Constituents of Smilax china L. Stems and Their Inhibitory Activities against Glycation, Aldose Reductase, α-Glucosidase, and Lipase” (Molecules : A Journal of Synthetic Chemistry and Natural …, 2017).
